From patent publication US20260034103A1, “COMPOSITIONS AND METHODS FOR IMPROVING MEMORY AND COGNITION” (priority 2022, published 2026)

Experiments:
[1] = tested on: adult subjects with major depressive disorder (MDD); assay: Phase 2 clinical trial in MDD: MADRS Item #6 Concentration Difficulties; type: in vivo, human; parameters: key to MADRS Item #6 Concentration Difficulty score, Median / MADRS Item #6 Concentration Difficulty score, Min / MADRS Item #6 Concentration Difficulty score, Max: 0 = no concentration difficulty, 6 = unable to read/converse; key to MADRS Item #6 Change from Baseline, Median / MADRS Item #6 Change from Baseline, Max: change from baseline on 0–6 MADRS item scale; details: for MADRS Item #6 Change from Baseline, Max / MADRS Item #6 Change from Baseline, Mean (SD) / MADRS Item #6 Change from Baseline, Median / MADRS Item #6 Change from Baseline, Min / MADRS Item #6 Concentration Difficulty score, Max / MADRS Item #6 Concentration Difficulty score, Mean (SD) / MADRS Item #6 Concentration Difficulty score, Median / MADRS Item #6 Concentration Difficulty score, Min / MADRS Item #6 Change from Baseline, LSM Difference (95% CI) SP-624 vs Placebo: mITT, Females; for MADRS Item #6 Change from Baseline, LSM Difference (95% CI) SP-624 vs Placebo: MMRM
Method: A Phase 2, multicenter, double-blind, randomized, placebo-controlled study of the safety and efficacy of SP-624 in the treatment of adult subjects with major depressive disorder (MDD) as defined by the Diagnostic and Statistical Manual of Mental Disorders, Fifth Edition (DSM-5) was carried out. Following the successful completion of a Screening Phase, subjects were randomized to one of two treatment groups in a 1:1 ratio and received Compound 1 (SP-624) or placebo over a treatment period of four weeks (Treatment Group #1: SP-624 20 mg/day; Treatment Group #2: Placebo).
Prior to initiating the 4-week treatment period, subjects completed a Screening/Baseline period of up to 28 days, during which time all screening assessments were performed, and any current depression medications discontinued. All screening assessments were completed before discontinuing any current depression medications. Subjects returned for a Baseline Visit to complete efficacy and safety assessments. During the treatment period, subjects returned to the investigative site to complete efficacy and safety assessments at the end of Weeks 1, 2, 3, and 4. After the final dose of study drug, subjects completed a follow-up period of two weeks and returned at the end of Weeks 5 and 6. Subjects may be treated with anti-depressant medications according to physician recommendations after completion of the Week 5 Visit.
Each dose of Compound 1 was supplied as two capsules, each containing 10 mg of active pharmaceutical ingredient (API). Matching placebo capsules identical in shape and color to the active capsules were used.
The third cognitive function measurement is MADRS Item #6 Concentration Difficulties (representing difficulties in collecting one's thoughts mounting to incapacitating lack of concentration, rated according to intensity, frequency, and degree of incapacity produced). The answer scale is: 0—No difficulties in concentration; 1—blank; 2—Occasional difficulties in collecting one's thoughts; 3—blank; 4—Difficulties in concentrating and sustaining thought which reduces ability to read or hold a conversation; 5—blank; 6—Unable to read or converse without great difficulty.

[2] = tested on: Long-Evans rats; assay: Novel object recognition test, scopolamine-induced cognitive impairment; type: in vivo, rat; details: 0.1 and 1 mg/kg PO
Method: Total exploration time of two identical objects in the acquisition trial was measured manually and indicated as the mean±SEM (n=8). No statistical difference was found in the total exploration time among the different groups by one-way ANOVA (P=0.115).
NDI was calculated using the following equation: novel object interaction time/total interaction time×100(%). Data are represented as the mean±SEM (n=8). Significant difference from control group was indicated by ***P<0.001 (Student's t-test). Significant differences from scopolamine-treated vehicle group were indicated by ##P<0.01 (Dunnett test). Significant difference from scopolamine-treated vehicle group were indicated by †††P<0.001 (Student's t-test).
Exploration time of each object in retention trial was measured manually and presented as the mean±SEM (n=8). Significant differences from familiar object interaction were indicated by **P<0.01, *P<0.05 (paired t-test).
A novel object recognition test (which evaluates visual learning and memory) was conducted to investigate the effect of compound 1 on scopolamine-induced cognitive impairment in Long-Evans rats. Donepezil was used as a positive control. Scopolamine at 0.1 mg/kg SC reduced the novelty discrimination index (NDI) a measure of cognitive function (FIGS. 4-6).

[3] = Week 5 (1-week after the last dose), 20 mg/day for four weeks

Structure (SMILES): COC1=CC(=O)C[C@@H](C)[C@]12Oc1c(Cl)c(-c3nnc(C)o3)cc(OC)c1C2=O [Compound 1, (2S,6′R)-7-Chloro-2′,4-dimethoxy-6′-methyl-6-(5-methyl-1,3,4-oxadiazol-2-yl)-3H-spiro[1-benzofuran-2,1′-cyclohex[2]ene]-3,4′-dione]
- MADRS Item #6 Change from Baseline, Max ([1]; Week 1, 20 mg/day): 1
- MADRS Item #6 Change from Baseline, Mean (SD) ([1]; Week 1, 20 mg/day): −0.7 (1.27)
- MADRS Item #6 Change from Baseline, Median ([1]; Week 1, 20 mg/day): 0
- MADRS Item #6 Change from Baseline, Min ([1]; Week 1, 20 mg/day): −5
- MADRS Item #6 Concentration Difficulty score, Max ([1]; Week 1, 20 mg/day): 6
- MADRS Item #6 Concentration Difficulty score, Mean (SD) ([1]; Week 1, 20 mg/day): 3.0 (1.48)
- MADRS Item #6 Concentration Difficulty score, Median ([1]; Week 1, 20 mg/day): 4
- MADRS Item #6 Concentration Difficulty score, Min ([1]; Week 1, 20 mg/day): 0
- MADRS Item #6 Change from Baseline, LSM Difference (95% CI) SP-624 vs Placebo ([1]; Week 1, 20 mg/day, P-value 0.339): −0.2 (−0.5, 0.2)
- MADRS Item #6 Change from Baseline, Max ([1]; Week 2, 20 mg/day): 3
- MADRS Item #6 Change from Baseline, Mean (SD) ([1]; Week 2, 20 mg/day): −0.7 (1.27)
- MADRS Item #6 Change from Baseline, Median ([1]; Week 2, 20 mg/day): 0
- MADRS Item #6 Change from Baseline, Min ([1]; Week 2, 20 mg/day): −4
- MADRS Item #6 Concentration Difficulty score, Max ([1]; Week 2, 20 mg/day): 5
- MADRS Item #6 Concentration Difficulty score, Mean (SD) ([1]; Week 2, 20 mg/day): 3.0 (1.37)
- MADRS Item #6 Concentration Difficulty score, Median ([1]; Week 2, 20 mg/day): 3
- MADRS Item #6 Concentration Difficulty score, Min ([1]; Week 2, 20 mg/day): 0
- MADRS Item #6 Change from Baseline, LSM Difference (95% CI) SP-624 vs Placebo ([1]; Week 2, 20 mg/day, P-value 0.753): 0.1 (−0.3, 0.4)
- MADRS Item #6 Change from Baseline, Max ([1]; Week 3, 20 mg/day): 0
- MADRS Item #6 Change from Baseline, Mean (SD) ([1]; Week 3, 20 mg/day): −1.2 (1.40)
- MADRS Item #6 Change from Baseline, Median ([1]; Week 3, 20 mg/day): −1
- MADRS Item #6 Change from Baseline, Min ([1]; Week 3, 20 mg/day): −5
- MADRS Item #6 Concentration Difficulty score, Max ([1]; Week 3, 20 mg/day): 4
- MADRS Item #6 Concentration Difficulty score, Mean (SD) ([1]; Week 3, 20 mg/day): 2.6 (1.58)
- MADRS Item #6 Concentration Difficulty score, Median ([1]; Week 3, 20 mg/day): 3
- MADRS Item #6 Concentration Difficulty score, Min ([1]; Week 3, 20 mg/day): 0
- MADRS Item #6 Change from Baseline, LSM Difference (95% CI) SP-624 vs Placebo ([1]; Week 3, 20 mg/day, P-value 0.214): −0.3 (−0.7, 0.2)
- MADRS Item #6 Change from Baseline, Max ([1]; Week 4, 20 mg/day): 1
- MADRS Item #6 Change from Baseline, Mean (SD) ([1]; Week 4, 20 mg/day): −1.2 (1.51)
- MADRS Item #6 Change from Baseline, Median ([1]; Week 4, 20 mg/day): −1
- MADRS Item #6 Change from Baseline, Min ([1]; Week 4, 20 mg/day): −4
- MADRS Item #6 Concentration Difficulty score, Max ([1]; Week 4, 20 mg/day): 5
- MADRS Item #6 Concentration Difficulty score, Mean (SD) ([1]; Week 4, 20 mg/day): 2.5 (1.67)
- MADRS Item #6 Concentration Difficulty score, Median ([1]; Week 4, 20 mg/day): 3
- MADRS Item #6 Concentration Difficulty score, Min ([1]; Week 4, 20 mg/day): 0
- MADRS Item #6 Change from Baseline, LSM Difference (95% CI) SP-624 vs Placebo ([1]; Week 4, 20 mg/day, P-value 0.144): −0.3 (−0.8, 0.1)
- MADRS Item #6 Change from Baseline, Max [1, 3]: 1
- MADRS Item #6 Change from Baseline, Mean (SD) [1, 3]: −1.3 (1.51)
- MADRS Item #6 Change from Baseline, Median [1, 3]: −1
- MADRS Item #6 Change from Baseline, Min [1, 3]: −5
- MADRS Item #6 Concentration Difficulty score, Max [1, 3]: 5
- MADRS Item #6 Concentration Difficulty score, Mean (SD) [1, 3]: 2.4 (1.63)
- MADRS Item #6 Concentration Difficulty score, Median [1, 3]: 3
- MADRS Item #6 Concentration Difficulty score, Min [1, 3]: 0
- MADRS Item #6 Change from Baseline, LSM Difference (95% CI) SP-624 vs Placebo ([1]; Week 5 (1-week after the last dose), 20 mg/day for four weeks, P-value 0.007): −0.6 (−1.1, −0.2)
- MADRS Item #6 Concentration Difficulties, improvement in score vs placebo ([1]; all measurement times through week 5, 20 mg/day): greater improvement in score
- novelty discrimination index (NDI) reduced by scopolamine [2]: significantly improved
